Values of other authors in patent US20090117079A1, “METHODS AND MATERIALS FOR TREATING OR PREVENTING DISEASES/DISORDERS MEDIATED BY ALCOHOL DEHYDROGENASE” (priority 2007, published 2009).

Tested on: alcohol dehydrogenase (ADH I)
Details: competitive inhibition of ADH I in humans; affinity of ethanol relative to methanol

CCO [ethanol]
ethanol/methanol affinity ratio: 10/1
